Data on 11 compounds can be found in patent publication US4335138A, “Novel carbamates, their preparation, and pharmaceutical formulations containing these compounds” (BASF Aktiengesellschaft, priority 1979, dated 1982).

One series can be described thus: in vivo. The conditions noted are these: rat, ip; for selectivity ratio: Therapeutic range. Here is the method:
(§1) The acute toxicity is determined on groups of 10 rats of the same strain as above, again for intraperitoneal administration.
(§2) The comparison substance used is the well known hypnotic Ethinamate (1-ethynyl-cyclohexyl carbamate).

Series [1] relates to rats. In words: Hypnotic action on intraperitoneal administration (period of absence of the righting reflex, duration of sleep). Format: in vivo, female Sprague-Dawley rats. The conditions noted are these: for ED (60 min sleep): Rattus norvegicus, 1 h, dose which causes a 60 minute period of sleep, regression analysis. Here is the method: To investigate the hypnotic action, these substances are administered intraperitoneally to groups of 4-8 female Sprague-Dawley rats each weighing 145-200 g. The period of absence of the righting reflex (ie. the duration of sleep) served as a criterion of the hypnotic action.
Linear relationships exist between the logarithms of the administered doses (mg/kg) and the logarithms of the period of sleep (min), from which relationships the dose which causes a 60 minute period of sleep is calculated, as the ED 60 min, by regression analysis.

The conditions of series [2]: German Laid-Open Application DOS No. 2,346,305; cited from earlier work.
The subject of series [3] is rats. In words: in vivo. The following applies: rat, ip, 681 mg/kg. How it is done:
as §1, §2

Usually LD50 stands for the dose at which mortality reaches 50%. Lower therefore signals greater toxicity. On to `CCCNC(=O)OC[C@@]1(C(C)=O)C[C@@H]2C=C[C@H]1C2` (relative stereo) [Example 4, exo-2-(N-n-propylcarbamyloxymethyl)-norborn-5-en-2-yl methyl ketone], for which, in “in vivo”, the LD50 at 6 h was determined as 392 mg/kg and the selectivity ratio is 18.2. The ED (60 min sleep) in the series on rats [1] (ip, intraperitoneal, rats) worked out at 21.5 mg/kg. Further, in the series with rats [1] (rat, in vivo, ip), the “R.A. (relative activity)” value came to 3.22.
On the same counts, the results for `CC(=O)[C@]1(COC(=O)NC(C)C)C[C@@H]2C=C[C@H]1C2` (relative stereo) [Example 7, exo-2-(N-isopropylcarbamyloxymethyl)-norborn-5-en-2-yl methyl ketone] are 137 mg/kg, 6.6, 20.7 mg/kg and 3.35.
On to `CC(=O)[C@]1(COC(=O)NC2CCCC2)C[C@@H]2C=C[C@H]1C2` (relative stereo) [Example 15, exo-2-(N-cyclopentylcarbamyloxymethyl)-norborn-5-en-2-yl methyl ketone], for which, in the series “in vivo”, the LD50 at 6 h came out at 247 mg/kg and the selectivity ratio was 5.3. The ED (60 min sleep) in the series with rats [1] (ip, intraperitoneal, rats) is 46.4 mg/kg. In addition, the “R.A. (relative activity)” value in the series on rats [1] (rat, in vivo, ip) was found to be 1.49.
On the same counts, the results for `CC(=O)[C@]1(COC(=O)NC(C)C)C[C@@H]2CC[C@H]1C2` (relative stereo) [Example 36, exo-2-(N-isopropylcarbamyloxymethyl)-norborn-2-yl methyl ketone] are 464 mg/kg, 12.3, 37.6 mg/kg and 1.84.
On the same counts, the results for `CC(=O)[C@]1(COC(=O)NCC(C)C)C[C@@H]2C=C[C@H]1C2` (relative stereo) [Example 87, exo-2-(N-(2-methylpropyl)-carbamyloxymethyl)-norborn-5-en-2-yl methyl ketone] are 482 mg/kg, 10.3, 46.7 mg/kg and 1.48.
For `CC(=O)[C@]1(COC(=O)NC2CC2)C[C@@H]2C=C[C@H]1C2` (relative stereo) [Example 109, exo-2-(N-cyclopropylcarbamyloxymethyl)-norborn-5-en-2-yl methyl ketone], in “in vivo”, the LD50 at 6 h was determined as 187 mg/kg and the selectivity ratio came to 6.9. The compound further showed an ED (60 min sleep) in the series on rats [1] (ip, intraperitoneal, rats) of 27.2 mg/kg. Besides, in the series on rats [1] (rat, in vivo, ip), the “R.A. (relative activity)” value worked out at 2.55.
For the compound `CNC(=O)OC1OC(=O)C2C3C=CC(C3)C12` (stereo not shown) [4-oxa-5-(5-methylcarbamyloxy)-tricyclo[5,2,1,0^2,6]-dec-8-en-3-one], the “Analgesic properties (in words), prior art” value in series [2] is “exhibit analgesic properties”.
Consider `C#CC1(OC(N)=O)CCCCC1` [Ethinamate, 1-ethynyl-cyclohexyl carbamate, reference compound], for which, in the series with rats [1] (Ethinamate = 1.00, intraperitoneal, rats), the “R.A. (relative activity)” value stood at 1.00. In the series with rats [1] (ip, intraperitoneal, rats), this compound returned an ED (60 min sleep) of 69.3 mg/kg.
Take `CCCNC(=O)OCC1(C(C)=O)CC=CCC1` (stereo not shown) [Example 52, 1-(N-propylcarbamyloxymethyl)-cyclohex-3-enyl methyl ketone]: in “in vivo”, the LD50 at 6 h came out at 215 mg/kg and the selectivity ratio stood at 7.5. In the series with rats [1] (ip, intraperitoneal, rats), the ED (60 min sleep) amounted to 28.5 mg/kg. Further, in the series with rats [1] (rat, in vivo, ip), the “R.A. (relative activity)” value is listed as 2.43.
As to `CCC(C)NC(=O)OC[C@@]1(C(C)=O)C[C@@H]2C=C[C@H]1C2` (stereo partly drawn) [Example 88, exo-2-(N-but-2-yl-carbamyloxymethyl)-norborn-5-en-2-yl methyl ketone], in the series “in vivo”, the LD50 at 6 h was found to be 150 mg/kg and the selectivity ratio was 4.9. For the same compound, the ED (60 min sleep) with rats [1] (ip, intraperitoneal, rats) is 30.8 mg/kg. Besides, the “R.A. (relative activity)” value in the series with rats [1] (rat, in vivo, ip) worked out at 2.25.
`CC(=O)[C@]1(COC(=O)NC(C)C2CC2)C[C@@H]2C=C[C@H]1C2` (stereo partly drawn) [Example 98, exo-2-[N-(1-cyclopropylethyl)-carbamyloxymethyl]-norborn-5-en-2-yl methyl ketone]: in the series on rats [3], the Mortality rate is listed as 0/10. In “in vivo”, the LD50 at 6 h is no less than 681 mg/kg and the selectivity ratio is no less than 22.5. The ED (60 min sleep) in the series with rats [1] (ip, intraperitoneal, rats) is 30.3 mg/kg. Moreover, in the series on rats [1] (rat, in vivo, ip), the “R.A. (relative activity)” value is 2.29.
